Measurements published in patent US20250281457A1, “TREATMENT OR PREVENTION OF DENGUE VIRAL INFECTION” (Janssen Pharmaceuticals, Inc., priority 2022, published 2025).
Marks after values point to notes of the source that are not given here.

Columns and labels:
[1] = Safety and tolerability, adverse events (Example 1); assay type: in vivo, human
Procedure: Safety and tolerability of Compound (a) was evaluated throughout the study, by recording the adverse events (AE) and their grade, as reported by the participants. An AE is any untoward medical occurrence in a subject administered the pharmaceutical formulation comprising Compound (a). […] An AE can therefore be any unfavorable and unintended sign (including an abnormal finding), symptom, or disease temporally associated with the use of the pharmaceutical formulation comprising Compound (a), whether or not related to the administration of the pharmaceutical formulation comprising Compound (a) (definition per International Conference on Harmonisation [ICH].) This includes any occurrence that is new in onset or aggravated in severity or frequency from the baseline condition, or abnormal results of diagnostic procedures, including laboratory test abnormalities. Grade refers to the severity of the AE, according to the below guideline: • Grade 1 Mild: transient or mild discomfort (<48 hours); no medical intervention/therapy required. • Grade 2 Moderate: mild to moderate limitation in activity; some assistance may be needed; no or minimal medical intervention/therapy required. • Grade 3 Severe: marked limitation in activity; some assistance usually required; medical intervention/therapy required; hospitalizations possible. • Grade 4 Potentially Life-threatening: Extreme limitation in activity; significant assistance required; significant medical intervention/therapy required; hospitalization or hospice care probable. All reported AEs with onset during the treatment phase and AEs that have worsened since baseline (ie, treatment-emergent AEs (TEAEs)) were included in the analysis.

[2] = Safety and tolerability, TEAEs (Example 2); assay type: in vivo, human
Procedure: Safety and tolerability of Compound (a) was evaluated throughout the study, as described in Example 1.

[3] = Panel 1 (400 mg fasted: Treatment A oral solution and Treatment B SF1b)
[4] = Panels 1 and 2 (400 mg fasted; oral solution, SF1b, SF2b)

Q: For `COc1cc(NC(C(=O)c2c[nH]c3ccc(OC(F)(F)F)cc23)c2ccc(Cl)cc2OC)cc(S(C)(=O)=O)c1` (centres unmarked) [Compound (a)], which “Related adverse events, Grade 1” value [1, 3] is on record?
A: two Grade 1 AEs of throat irritation and dermatitis on one subject, and throat irritation and dermaturia in another subject

Q: What about the “Related adverse events, Grade 2” value [1, 3] of the same compound?
A: one Grade 2 AE of headache and dermatitis

Q: And the “Related adverse events, Grade 1” value ([1]; Panel 2 (400 mg fasted: Treatment A oral solution and Treatment C SF2b))?
A: two Grade 1 AEs of headache and dermatitis each in one subject

Q: What about the “Grade 1 Treatment Emergent Events, overall” value [1, 4] of the same compound?
A: 11

Q: What about the “Grade 2 Treatment Emergent Events, overall” value [1, 4] of the same compound?
A: 7

Q: What about the “Grade 3 Treatment Emergent Events, overall” value [1, 4] of the same compound?
A: One

Q: And the “Grade 4 Treatment Emergent Events, overall” value [1, 4]?
A: No

Q: What about the “at least 1 TEAE reported” value ([2]; Panel 3, Treatment D (800 mg, fasted)) of the same compound?
A: 9 (69.2%) # Participants (%)

Q: What about the “at least 1 TEAE reported” value ([2]; Panel 3, Treatment E (800 mg, fed, standardized breakfast)) of the same compound?
A: 6 (40.0%) # Participants (%)

Q: What about the “at least 1 TEAE reported” value ([2]; Panel 4, Treatment F (200 mg, fasted)) of the same compound?
A: 6 (46.2%) # Participants (%)

Q: What about the “at least 1 TEAE reported” value ([2]; Panel 4, Treatment G (200 mg, fed, standardized breakfast)) of the same compound?
A: 7 (58.3%) # Participants (%)

Q: And the “at least 1 TEAE reported” value ([2]; Panel 5, Treatment H (50 mg, fasted))?
A: 5 (38.5%) # Participants (%)

Q: What about the “at least 1 TEAE reported” value ([2]; Panel 5, Treatment I (50 mg, fed, standardized breakfast)) of the same compound?
A: 8 (66.7%) # Participants (%)

Q: What about the “Safety and tolerability, overall conclusion” value ([2]; single doses 50-800 mg SF2a/b, fasted or fed) of the same compound?
A: safe and well tolerated
